Experimental data published in publication PMC11172375, “Preclinical Evaluation of Biodistribution and Toxicity of [^211At]PSMA-5 in Mice and Primates for the Targeted Alpha Therapy against Prostate Cancer” (International Journal of Molecular Sciences, 2024).

Experiment: Blood chemistry examination in mice
Format: in vivo, ICR mice
Method: [^211At]PSMA-5 was administered intravenously to 25 mice, and its biodistribution was evaluated. For the toxicity study, three doses of [^211At]PSMA-5 (5, 12, and 35 MBq/kg, single dose) or saline were intravenously administered to 10 mice/group for the main evaluation point on day 1, and 5-mice/group for recovery evaluation on day 14, adhering to the ICH M3 (R2) guidelines. The dosage was determined based on our previous study using [^211At]NaAt. The monkeys were monitored for 24 h post-administration of [^211At]PSMA-5 (9 MBq/kg).
A blood cell counter was used for the measurements (CB-1010; ARKRAY, Inc., Kyoto, Japan). Red blood cell count (RBC), hemoglobin concentration (Hb), hematocrit (Ht), white blood cell count (WBC), platelet count (platelet), lymphocytes (%Lymph), monocytes (%Mon), and granulocytes (%Gra) were calculated. Plasma was analyzed using a dry clinical chemistry analyzer (Spotchem D-00 QR D-02; ARKRAY, Inc., Kyoto, Japan). The levels of aspartate aminotransferase (AST), alanine aminotransferase (ALT), gamma-glutamyl transpeptidase (γ-GTP), lactate dehydrogenase (LDH), alkaline phosphatase (ALP), creatine kinase (CK), amylase (AMY), total bilirubin (TBIL), creatinine (CRE), urea nitrogen (BUN), glucose (GLU), total protein (TP), albumin (ALB), total cholesterol (TCHO), triglyceride (TG), and electrolytes (Na, K, and Cl) were measured.

O=C(O)CC[C@H](NC(=O)N[C@@H](CCCCNC(=O)[C@@H](Cc1ccc2ccccc2c1)NC(=O)c1ccc(CNC(=O)[C@@H](CCC(=O)O)NC(=O)[C@@H](CCC(=O)O)NC(=O)Cc2ccc([211At])cc2)cc1)C(=O)O)C(=O)O [[^211At]PSMA-5]
ALB (5 MBq/kg i.v., day 1): 2.3 ± 0.2 g/dL
ALP (5 MBq/kg i.v., day 1): 194 ± 86 IU/L
ALT (5 MBq/kg i.v., day 1): 41.2 ± 31.6 IU/L
AMY (5 MBq/kg i.v., day 1): 2675 ± 562 IU/L
AST (5 MBq/kg i.v., day 1): 43.8 ± 30.3 IU/L
BUN (5 MBq/kg i.v., day 1): 22 ± 8.3 mg/dL
CK (5 MBq/kg i.v., day 1): 180 ± 60 IU/L
CRE (5 MBq/kg i.v., day 1): 0.2 ± 0 mg/dL
GLU (5 MBq/kg i.v., day 1): 198 ± 70 mg/dL
K (5 MBq/kg i.v., day 1): 4.5 ± 0.5 mEq/L
LDH (5 MBq/kg i.v., day 1): 641 ± 281 IU/L
Na (5 MBq/kg i.v., day 1): 141 ± 2.5 mEq/L
TBIL (5 MBq/kg i.v., day 1): 0.6 ± 0.22 mg/dL
TCHO (5 MBq/kg i.v., day 1): 130 ± 20 mg/dL
TG (5 MBq/kg i.v., day 1): 112 ± 75 mg/dL
TP (5 MBq/kg i.v., day 1): 4.1 ± 0.4 g/dL
γ-GTP (5 MBq/kg i.v., day 1): 10 ± 0 IU/L
ALB (5 MBq/kg i.v., day 14): 2.2 ± 0.1 g/dL
ALP (5 MBq/kg i.v., day 14): 171 ± 36 IU/L
ALT (5 MBq/kg i.v., day 14): 16.5 ± 4.9 IU/L
AMY (5 MBq/kg i.v., day 14): 2200 ± 428 IU/L
AST (5 MBq/kg i.v., day 14): 45 ± 22.7 IU/L
BUN (5 MBq/kg i.v., day 14): 27.6 ± 1.1 mg/dL
CK (5 MBq/kg i.v., day 14): 162 ± 91 IU/L
CRE (5 MBq/kg i.v., day 14): 0.2 ± 0 mg/dL
GLU (5 MBq/kg i.v., day 14): 146 ± 39 mg/dL
K (5 MBq/kg i.v., day 14): 5.1 ± 1.2 mEq/L
LDH (5 MBq/kg i.v., day 14): 611 ± 24 IU/L
Na (5 MBq/kg i.v., day 14): 143 ± 1.9 mEq/L
TBIL (5 MBq/kg i.v., day 14): 0.88 ± 0.16 mg/dL
TCHO (5 MBq/kg i.v., day 14): 151 ± 18 mg/dL
TG (5 MBq/kg i.v., day 14): 75 ± 17 mg/dL
TP (5 MBq/kg i.v., day 14): 4.1 ± 0.5 g/dL
γ-GTP (5 MBq/kg i.v., day 14): 10 ± 0 IU/L
ALB (12 MBq/kg i.v., day 1): 2.3 ± 0.2 g/dL
ALP (12 MBq/kg i.v., day 1): 193 ± 100 IU/L
ALT (12 MBq/kg i.v., day 1): 29.0 ± 5.8 IU/L
AMY (12 MBq/kg i.v., day 1): 2666 ± 537 IU/L
AST (12 MBq/kg i.v., day 1): 37 ± 11.5 IU/L
BUN (12 MBq/kg i.v., day 1): 20.7 ± 8.3 mg/dL
CK (12 MBq/kg i.v., day 1): 192 ± 50 IU/L
CRE (12 MBq/kg i.v., day 1): 0.2 ± 0 mg/dL
GLU (12 MBq/kg i.v., day 1): 185 ± 42 mg/dL
K (12 MBq/kg i.v., day 1): 4.5 ± 0.3 mEq/L
LDH (12 MBq/kg i.v., day 1): 736 ± 363 IU/L
Na (12 MBq/kg i.v., day 1): 142 ± 2.0 mEq/L
TBIL (12 MBq/kg i.v., day 1): 0.53 ± 0.16 mg/dL
TCHO (12 MBq/kg i.v., day 1): 128 ± 20 mg/dL
TG (12 MBq/kg i.v., day 1): 119 ± 75 mg/dL
TP (12 MBq/kg i.v., day 1): 4.1 ± 0.3 g/dL
γ-GTP (12 MBq/kg i.v., day 1): 10 ± 0 IU/L
ALB (12 MBq/kg i.v., day 14): 2.1 ± 0.3 g/dL
ALP (12 MBq/kg i.v., day 14): 110 ± 59 IU/L
ALT (12 MBq/kg i.v., day 14): 21.5 ± 0.7 IU/L
AMY (12 MBq/kg i.v., day 14): 2514 ± 549 IU/L
AST (12 MBq/kg i.v., day 14): 28.8 ± 15.4 IU/L
BUN (12 MBq/kg i.v., day 14): 30.6 ± 6.1 mg/dL
CK (12 MBq/kg i.v., day 14): 144 ± 26 IU/L
CRE (12 MBq/kg i.v., day 14): 0.22 ± 0.04 mg/dL
GLU (12 MBq/kg i.v., day 14): 148 ± 24 mg/dL
K (12 MBq/kg i.v., day 14): 5.4 ± 0.8 mEq/L
LDH (12 MBq/kg i.v., day 14): 456 ± 72 IU/L
Na (12 MBq/kg i.v., day 14): 143 ± 2.8 mEq/L
TBIL (12 MBq/kg i.v., day 14): 0.68 ± 0.13 mg/dL
TCHO (12 MBq/kg i.v., day 14): 138 ± 20 mg/dL
TG (12 MBq/kg i.v., day 14): 87 ± 42 mg/dL
TP (12 MBq/kg i.v., day 14): 3.9 ± 0.4 g/dL
γ-GTP (12 MBq/kg i.v., day 14): 10 ± 0 IU/L
ALB (35 MBq/kg i.v., day 1): 2.2 ± 0.1 g/dL
ALP (35 MBq/kg i.v., day 1): 208 ± 67 IU/L
ALT (35 MBq/kg i.v., day 1): 53.0 ± 10.3 IU/L
AMY (35 MBq/kg i.v., day 1): 2795 ± 363 IU/L
BUN (35 MBq/kg i.v., day 1): 19.6 ± 6.2 mg/dL
CK (35 MBq/kg i.v., day 1): 170 ± 65 IU/L
CRE (35 MBq/kg i.v., day 1): 0.2 ± 0 mg/dL
GLU (35 MBq/kg i.v., day 1): 201 ± 31 mg/dL
K (35 MBq/kg i.v., day 1): 5.1 ± 0.5 mEq/L
LDH (35 MBq/kg i.v., day 1): 638 ± 385 IU/L
Na (35 MBq/kg i.v., day 1): 140 ± 1.4 mEq/L
TBIL (35 MBq/kg i.v., day 1): 0.71 ± 0.48 mg/dL
TCHO (35 MBq/kg i.v., day 1): 129 ± 21 mg/dL
TG (35 MBq/kg i.v., day 1): 122 ± 79 mg/dL
TP (35 MBq/kg i.v., day 1): 4.0 ± 0.3 g/dL
γ-GTP (35 MBq/kg i.v., day 1): 10 ± 0 IU/L
AST (35 MBq/kg i.v., day 1, hemolysis was observed): 51.5 ± 36.2 IU/L
ALB (35 MBq/kg i.v., day 14): 2.3 ± 0.1 g/dL
ALP (35 MBq/kg i.v., day 14): 133 ± 46 IU/L
ALT (35 MBq/kg i.v., day 14): 13.0 ± 0.0 IU/L
AMY (35 MBq/kg i.v., day 14): 2678 ± 388 IU/L
AST (35 MBq/kg i.v., day 14): 28.4 ± 9.9 IU/L
BUN (35 MBq/kg i.v., day 14): 23.4 ± 3.4 mg/dL
CK (35 MBq/kg i.v., day 14): 141 ± 18 IU/L
CRE (35 MBq/kg i.v., day 14): 0.2 ± 0 mg/dL
GLU (35 MBq/kg i.v., day 14): 141 ± 21 mg/dL
K (35 MBq/kg i.v., day 14): 4.7 ± 0.6 mEq/L
LDH (35 MBq/kg i.v., day 14): 538 ± 129 IU/L
Na (35 MBq/kg i.v., day 14): 143 ± 2.6 mEq/L
TBIL (35 MBq/kg i.v., day 14): 0.68 ± 0.33 mg/dL
TCHO (35 MBq/kg i.v., day 14): 144 ± 15 mg/dL
TG (35 MBq/kg i.v., day 14): 67 ± 18 mg/dL
TP (35 MBq/kg i.v., day 14): 4.1 ± 0.2 g/dL
γ-GTP (35 MBq/kg i.v., day 14): 10 ± 0 IU/L
